Our source for the CC50 and EC50 values is article PMC10572855, “Phenotypic Test of Benzo[4,5]imidazo[1,2-c]pyrimidinone-Based Nucleoside and Non-Nucleoside Derivatives against DNA and RNA Viruses, Including Coronaviruses” (International Journal of Molecular Sciences, 2023).

Read-outs that look alike come from different tables or passages of the source.

Data set [1] in a line: Cytotoxicity in HEL299 cells, MTS assay. The class given is cell-based, Human. The conditions noted are these: human, HEL299 cells, cell growth reduced by 50%. For orientation: Formazan colour is commonly taken as a measure of viable cells.
Experimental: (§1) Cells were seeded at a rate of 5 × 10^3 cells/well into 96-well plates and allowed to proliferate for 24 h. Then, a medium containing different concentrations of the test compounds, starting at 100 mM, was added. After 3 days of incubation at 37 °C, the cell count was determined with a Beckman Coulter counter or, alternatively, cell viability was determined with the colorimetric formazan-based MTS assay. […] The cytotoxic effects of the compounds were also assessed by evaluating the MCC (minimum cytotoxic concentration that causes a microscopically detectable alteration of cell morphology).
The next data set has as its system HCoV 229E. The data set is described as follows: Cytopathic effect reduction, HCoV 229E. The class given is cell-based, Human coronavirus 229E. Particulars: reduction of virus-induced cytopathic effect by 50%, virus input 100 TCID50, read-out: Antiviral Activity (EC50) HCoV 229E. In general terms: Cytopathic effects are the visible damage that an infection or toxin causes in cultured cells.

The test system of the next data set is HCoV NL63. The data set is described as follows: Cytopathic effect reduction, HCoV NL63. The conditions noted are these: reduction of virus-induced cytopathic effect by 50%, virus input 100 TCID50, read-out: Antiviral Activity (EC50) HCoV NL63. The class given is cell-based, Human coronavirus NL63.
Data set [2] is described as follows: Cytotoxicity in Huh7 cells, MTS assay. The conditions noted are these: human, Huh7 cells, cell growth reduced by 50%. The class given is cell-based, Human.
Experimental: as §1
The subject of a further data set is HCoV OC43. Put plainly: Cytopathic effect reduction, HCoV OC43. The class given is cell-based, Human coronavirus OC43. The conditions noted are these: reduction of virus-induced cytopathic effect by 50%, virus input 100 TCID50, read-out: Antiviral Activity (EC50) HCoV OC43.
A further data set relates to RSV (Long). The data set is described as follows: Cytopathic effect reduction, RSV (Long). Particulars: reduction of virus-induced cytopathic effect by 50%, virus input 100 TCID50, read-out: Antiviral Activity (EC50) RSV Long. The class given is cell-based, Respiratory syncytial virus.
The subject of another data set is HEL299 cells. Put plainly: Cytotoxicity in HEL299 cells, MTS assay. The class given is cell-based, Human. The conditions noted are these: cell growth reduced by 50%.
A further data set relates to Huh7 cells. The data set is described as follows: Cytotoxicity in Huh7 cells, MTS assay. The class given is cell-based, Human. The conditions noted are these: cell growth reduced by 50%.
The mark [3] stands for this setting: human respiratory syncytial virus.

In general, CC50 refers to the concentration giving 50% cytotoxicity. Read a high CC50 as lower toxicity to the cells. Broadly, the EC50 is the concentration that produces a half-maximal response. Consider `O=c1n([C@H]2C[C@H](O)[C@@H](CO)O2)ccc2nc3cc(O)ccc3n12` [Compound 2a, 7-hydroxy-2-((2R,4S,5R)-4-hydroxy-5-(hydroxymethyl)tetrahydrofuran-2-yl)benzo[4,5]imidazo[1,2-c]pyrimidin-1(2H)-one], for which the CC50 at 3 days in data set [1] and in data set [2] was more than 100 µM each time. Also, the EC50 is more than 100 µM in the data set with HCoV 229E (Human coronavirus 229E); more than 100 µM with HCoV NL63 (Human coronavirus NL63); more than 100 µM in the data set on HCoV OC43 (Betacoronavirus 1, OC43); more than 100 µM in the data set on RSV (Long) (setting [3]).
`O=c1n([C@@H]2O[C@H](CO)[C@@H](O)[C@H]2O)ccc2nc3cc(O)ccc3n12` [Compound 2b, 2-((2R,3R,4S,5R)-3,4-dihydroxy-5-(hydroxymethyl)tetrahydrofuran-2-yl)-7-hydroxybenzo[4,5]imidazo[1,2-c]pyrimidin-1(2H)-one]: the cytotoxic concentration (CC50) at 3 days in data set [1] and in data set [2] was more than 100 µM throughout. Also, the EC50 with HCoV 229E (Human coronavirus 229E) is more than 100 µM; in the data set with HCoV NL63 (Human coronavirus NL63), more than 100 µM; in the data set on HCoV OC43 (Betacoronavirus 1, OC43), more than 100 µM; in the data set with RSV (Long) (setting [3]), more than 100 µM.
For the molecule `CCCCOc1ccc2c(c1)nc1ccn([C@H]3C[C@H](O)[C@@H](COC(c4ccccc4)(c4ccc(OC)cc4)c4ccc(OC)cc4)O3)c(=O)n12` [Compound 4a, 2-((2R,4S,5R)-5-((bis(4-methoxyphenyl)(phenyl)methoxy)methyl)-4-hydroxytetrahydrofuran-2-yl)-7-butoxybenzo[4,5]imidazo[1,2-c]pyrimidin-1(2H)-one], the CC50 in the data set with HEL299 cells and in the data set on Huh7 cells was more than 40 µM each time. In addition, the EC50 with HCoV 229E, with HCoV NL63, in the data set with HCoV OC43 and in the data set with RSV (Long) was more than 100 µM in each case.
Take `CCCCCCOc1ccc2c(c1)nc1ccn([C@H]3C[C@H](O)[C@@H](COC(c4ccccc4)(c4ccc(OC)cc4)c4ccc(OC)cc4)O3)c(=O)n12` [Compound 4b, 2-((2R,4S,5R)-5-((bis(4-methoxyphenyl)(phenyl)methoxy)methyl)-4-hydroxytetrahydrofuran-2-yl)-7-(hexyloxy)benzo[4,5]imidazo[1,2-c]pyrimidin-1(2H)-one]: the CC50 in the data set on HEL299 cells and in the data set on Huh7 cells was more than 100 µM in each case. Also, the EC50 in the data set on HCoV 229E, with HCoV NL63, with HCoV OC43 and in the data set with RSV (Long) was more than 100 µM throughout.
Consider `CCCCCCCCOc1ccc2c(c1)nc1ccn([C@H]3C[C@H](O)[C@@H](COC(c4ccccc4)(c4ccc(OC)cc4)c4ccc(OC)cc4)O3)c(=O)n12` [Compound 4c, 2-((2R,4S,5R)-5-((bis(4-methoxyphenyl)(phenyl)methoxy)methyl)-4-hydroxytetrahydrofuran-2-yl)-7-(octyloxy)benzo[4,5]imidazo[1,2-c]pyrimidin-1(2H)-one], for which the CC50 with HEL299 cells was more than 40 µM; in the data set on Huh7 cells it was more than 100 µM. Besides, the EC50 in the data set with HCoV 229E, with HCoV NL63, in the data set with HCoV OC43 and in the data set on RSV (Long) was more than 100 µM in each case.
Turning to `CCCCCCCCCCOc1ccc2c(c1)nc1ccn([C@H]3C[C@H](O)[C@@H](COC(c4ccccc4)(c4ccc(OC)cc4)c4ccc(OC)cc4)O3)c(=O)n12` [Compound 4d, 2-((2R,4S,5R)-5-((bis(4-methoxyphenyl)(phenyl)methoxy)methyl)-4-hydroxytetrahydrofuran-2-yl)-7-(decyloxy)benzo[4,5]imidazo[1,2-c]pyrimidin-1(2H)-one], the CC50 in the data set on HEL299 cells and with Huh7 cells was more than 40 µM each time. Further, the EC50 with HCoV 229E, with HCoV NL63, with HCoV OC43 and with RSV (Long) was more than 100 µM in each case.
As to `CCCCCCCCCCCCOc1ccc2c(c1)nc1ccn([C@H]3C[C@H](O)[C@@H](COC(c4ccccc4)(c4ccc(OC)cc4)c4ccc(OC)cc4)O3)c(=O)n12` [Compound 4e, 2-((2R,4S,5R)-5-((bis(4-methoxyphenyl)(phenyl)methoxy)methyl)-4-hydroxytetrahydrofuran-2-yl)-7-(dodecyloxy)benzo[4,5]imidazo[1,2-c]pyrimidin-1(2H)-one], the half-maximal cytotoxic concentration (CC50) with HEL299 cells and in the data set with Huh7 cells was more than 100 µM each time. Also, the EC50 in the data set with HCoV 229E, in the data set with HCoV NL63, in the data set with HCoV OC43 and with RSV (Long) was more than 100 µM each time.
In the case of `CCCCOc1ccc2c(c1)nc1ccn([C@@H]3O[C@H](COC(c4ccccc4)(c4ccc(OC)cc4)c4ccc(OC)cc4)[C@@H](O)[C@H]3O)c(=O)n12` [Compound 5a, 2-((2R,3R,4S,5R)-5-((bis(4-methoxyphenyl)(phenyl)methoxy)methyl)-3,4-dihydroxytetrahydrofuran-2-yl)-7-butoxybenzo[4,5]imidazo[1,2-c]pyrimidin-1(2H)-one], the cytotoxic concentration (CC50) with HEL299 cells and with Huh7 cells was more than 100 µM in each case. Moreover, the EC50 with HCoV 229E, in the data set with HCoV NL63, with HCoV OC43 and with RSV (Long) was more than 100 µM throughout.
`CCCCCCOc1ccc2c(c1)nc1ccn([C@@H]3O[C@H](COC(c4ccccc4)(c4ccc(OC)cc4)c4ccc(OC)cc4)[C@@H](O)[C@H]3O)c(=O)n12` [Compound 5b, 2-((2R,3R,4S,5R)-5-((bis(4-methoxyphenyl)(phenyl)methoxy)methyl)-3,4-dihydroxytetrahydrofuran-2-yl)-7-(hexyloxy)benzo[4,5]imidazo[1,2-c]pyrimidin-1(2H)-one]: the CC50 in the data set with HEL299 cells was more than 100 µM; with Huh7 cells, more than 10 µM. For the same molecule, the concentration giving a half-maximal response (EC50) with HCoV 229E is more than 100 µM; in the data set with HCoV NL63 it was more than 100 µM; in the data set with HCoV OC43, more than 50 µM; with RSV (Long), more than 100 µM.
In the case of `CCCCCCCCOc1ccc2c(c1)nc1ccn([C@@H]3O[C@H](COC(c4ccccc4)(c4ccc(OC)cc4)c4ccc(OC)cc4)[C@@H](O)[C@H]3O)c(=O)n12` [Compound 5c, 2-((2R,3R,4S,5R)-5-((bis(4-methoxyphenyl)(phenyl)methoxy)methyl)-3,4-dihydroxytetrahydrofuran-2-yl)-7-(octyloxy)benzo[4,5]imidazo[1,2-c]pyrimidin-1(2H)-one], the CC50 in the data set with HEL299 cells is more than 100 µM; with Huh7 cells it was more than 10 µM. Besides, the EC50 in the data set on HCoV 229E, in the data set with HCoV NL63, with HCoV OC43 and in the data set on RSV (Long) was more than 100 µM in each case.
Regarding `CCCCCCCCCCOc1ccc2c(c1)nc1ccn([C@@H]3O[C@H](COC(c4ccccc4)(c4ccc(OC)cc4)c4ccc(OC)cc4)[C@@H](O)[C@H]3O)c(=O)n12` [Compound 5d, 2-((2R,3R,4S,5R)-5-((bis(4-methoxyphenyl)(phenyl)methoxy)methyl)-3,4-dihydroxytetrahydrofuran-2-yl)-7-(decyloxy)benzo[4,5]imidazo[1,2-c]pyrimidin-1(2H)-one], the 50% cytotoxic concentration (CC50) with HEL299 cells and with Huh7 cells was more than 100 µM each time. Further, the EC50 in the data set with HCoV 229E, in the data set with HCoV NL63, with HCoV OC43 and in the data set on RSV (Long) was more than 100 µM throughout.
Regarding `CCCCCCCCCCCCOc1ccc2c(c1)nc1ccn([C@@H]3O[C@H](COC(c4ccccc4)(c4ccc(OC)cc4)c4ccc(OC)cc4)[C@@H](O)[C@H]3O)c(=O)n12` [Compound 5e, 2-((2R,3R,4S,5R)-5-((bis(4-methoxyphenyl)(phenyl)methoxy)methyl)-3,4-dihydroxytetrahydrofuran-2-yl)-7-(dodecyloxy)benzo[4,5]imidazo[1,2-c]pyrimidin-1(2H)-one], the CC50 is more than 100 µM with HEL299 cells and more than 40 µM in the data set on Huh7 cells. Moreover, the EC50 in the data set on HCoV 229E, in the data set on HCoV NL63, in the data set with HCoV OC43 and with RSV (Long) was more than 100 µM throughout.
`CCCCOc1ccc2c(c1)nc1cc[nH]c(=O)n12` [Compound 6a, 7-butoxybenzo[4,5]imidazo[1,2-c]pyrimidin-1(2H)-one]: the cytotoxic concentration (CC50) at 3 days in data set [1] and in data set [2] was more than 100 µM throughout. For the same molecule, the half-maximal effective concentration (EC50) with HCoV 229E (Human coronavirus 229E) was more than 100 µM; in the data set on HCoV NL63 (Human coronavirus NL63), more than 100 µM; in the data set with HCoV OC43 (Betacoronavirus 1, OC43), more than 100 µM; in the data set on RSV (Long) (setting [3]), more than 100 µM.
In the case of `CCCCCCOc1ccc2c(c1)nc1cc[nH]c(=O)n12` [Compound 6b, 7-(hexyloxy)benzo[4,5]imidazo[1,2-c]pyrimidin-1(2H)-one], the CC50 at 3 days in data set [1] and in data set [2] was more than 100 µM in each case. Also, the EC50 in the data set on HCoV 229E (Human coronavirus 229E) was more than 100 µM; in the data set with HCoV NL63 (Human coronavirus NL63), more than 100 µM; with HCoV OC43 (Betacoronavirus 1, OC43), more than 100 µM; in the data set with RSV (Long) (setting [3]), more than 100 µM.
`CCCCCCCCOc1ccc2c(c1)nc1cc[nH]c(=O)n12` [Compound 6c, 7-(octyloxy)benzo[4,5]imidazo[1,2-c]pyrimidin-1(2H)-one]: the CC50 at 3 days in data set [1] and in data set [2] was more than 100 µM throughout. Further, the EC50 in the data set on HCoV 229E (Human coronavirus 229E) is more than 100 µM; in the data set with HCoV NL63 (Human coronavirus NL63), more than 100 µM; with HCoV OC43 (Betacoronavirus 1, OC43) it was more than 100 µM; in the data set with RSV (Long) (setting [3]), more than 100 µM.
